Test results taken from ChEMBL document CHEMBL4406860, “Discovery of potent ureido tetrahydrocarbazole derivatives for cancer treatments through targeting tumor-associated macrophages” (Eur J Med Chem, 2019).
The source made the active and inactive calls. The rule behind the calls is not given here.

Experiments:
RAW264.7 [1] = assay: Increase in TNF-alpha production in mouse RAW264.7 cells at 50 uM incubated for 24 hrs by ELISA (reference value: 1133.56 +/- 46.61 pg/ml); type: functional
RAW264.7 [2] = assay: Increase in TNF-alpha production in mouse RAW264.7 cells incubated for 24 hrs by ELISA; type: functional, cell-based; conditions: RAW264.7, 24 h
[3] = Increase in TNF-alpha production in mouse BMDM cells incubated for 24 hrs by ELISA; type: functional, cell-based
RAW264.7 [4] = assay: Induction of M1-phenotype markers expression in mouse RAW264.7 cells assessed as increase in IL-1beta expression incubated for 1 hr by qRT-PCR; type: functional, cell-based
RAW264.7 [5] = assay: Induction of M1-phenotype markers expression in mouse RAW264.7 cells assessed as increase in TNFalpha expression incubated for 1 hr by qRT-PCR; type: functional, cell-based
RAW264.7 [6] = assay: Induction of M1-phenotype markers expression in mouse RAW264.7 cells assessed as increase in iNOS expression incubated for 1 hr by qRT-PCR; type: functional, cell-based
RAW264.7 [7] = assay: Induction of M1-phenotype markers expression in mouse RAW264.7 cells assessed as increase in IL-12alpha expression incubated for 1 hr by qRT-PCR; type: functional, cell-based
RAW264.7 [8] = assay: Inhibition of M2-phenotype markers expression in mouse RAW264.7 cells assessed as decrease in IL-4 -induced CD206 expression incubated for 1 hr by qRT-PCR; type: functional, cell-based
RAW264.7 [9] = assay: Inhibition of M2-phenotype markers expression in mouse RAW264.7 cells assessed as decrease in IL-4 -induced in Arg-1 expression incubated for 1 hr by qRT-PCR; type: functional, cell-based
RAW264.7 [10] = assay: Inhibition of M2-phenotype markers expression in mouse RAW264.7 cells assessed as decrease in IL-4 -induced in Fizz-1 expression incubated for 1 hr by qRT-PCR; type: functional, cell-based
RAW264.7 [11] = assay: Inhibition of M2-phenotype markers expression in mouse RAW264.7 cells assessed as decrease in IL-4 -induced in Ym-1R expression incubated for 1 hr by qRT-PCR; type: functional, cell-based
RAW264.7 [12] = assay: Induction of M1-phenotype associated markers in mouse RAW264.7 cells assessed as F4/80-MHC II expression incubated for 24 hrs by flow cytometry (reference value: 12.1 %); type: functional
RAW264.7 [13] = assay: Inhibition of M2-phenotype associated markers in mouse RAW264.7 cells assessed as F4/80-CD206 expression in presence of IL4 incubated for 24 hrs by flow cytometry (reference value: 7.54 %); type: functional
RAW264.7 [14] = assay: Cytotoxicity against mouse RAW264.7 cells assessed as reduction in cell viability at 1000 uM incubated for 24 hrs by CCK-8 assay; type: cell-based; conditions: raw264.7, 24 h
[15] = tested on: Lewis lung carcinoma cell line; assay: Antitumor activity against mouse LLC cells xenografted in C57BL/6 mouse assessed as reduction in tumor volume at 5 mg/kg, ip administered every other day for 30 days; type: functional, organism-based
[16] = tested on: Lewis lung carcinoma cell line; assay: Antitumor activity against mouse LLC cells xenografted in C57BL/6 mouse assessed as reduction in tumor volume in prescence of anti-PD1 at 5 mg/kg, ip administered every other day for 30 days; type: functional, organism-based
[17] = tested on: Lewis lung carcinoma cell line; assay: Antitumor activity against mouse LLC cells xenografted in C57BL/6 mouse assessed as reduction in tumor weight at 5 mg/kg, ip administered every other day for 30 days; type: functional, organism-based
[18] = tested on: Lewis lung carcinoma cell line; assay: Antitumor activity against mouse LLC cells xenografted in C57BL/6 mouse assessed as reduction in tumor weight in prescence of anti-PD1 at 5 mg/kg, ip administered every other day for 30 days; type: functional, organism-based
[19] = Toxicity in C57BL/6 mouse xenografted with mouse LLC cells assessed as effect on lungs at 5 mg/kg, ip administered every other day for 30 days by H and E staining based microscopic analysis; type: organism-based; conditions: in vivo, 720 h
[20] = Toxicity in C57BL/6 mouse xenografted with mouse LLC cells assessed as effect on liver at 5 mg/kg, ip administered every other day for 30 days by H and E staining based microscopic analysis; type: organism-based; conditions: in vivo, 720 h
Mus musculus [21] = assay: In vivo induction of M1-phenotype associated marker in C57BL/6 mouse xenografted with mouse LLC cells assessed as increase in F4/80-iNOS expression at 5 mg/kg, ip administered every other day for 30 days by DAPI staining based immunofluorescence microscopic analysis; type: functional, organism-based
Mus musculus [22] = assay: In vivo inhibition of M2-phenotype associated marker in C57BL/6 mouse xenografted with mouse LLC cells assessed as decrease in F4/80-CD206 expression at 5 mg/kg, ip administered every other day for 30 days by DAPI staining based immunofluorescence microscopic analysis; type: functional, organism-based
Mus musculus [23] = assay: In vivo induction of M1-phenotype associated marker in C57BL/6 mouse xenografted with mouse LLC cells assessed as increase in F4/80-iNOS expression in presence of anti-PD1 at 5 mg/kg, ip administered every other day for 30 days by DAPI staining based immunofluorescence microscopic analysis; type: functional, organism-based
Mus musculus [24] = assay: In vivo inhibition of M2-phenotype associated marker in C57BL/6 mouse xenografted with mouse LLC cells assessed as decrease in F4/80-CD206 expression in presence of anti-PD1 at 5 mg/kg, ip administered every other day for 30 days by DAPI staining based immunofluorescence microscopic analysis; type: functional, organism-based
[25] = Toxicity in C57BL/6 mouse xenografted with mouse LLC cells assessed as effect on body weight in prescence of anti-PD1 (1 mg/kg) at 5 mg/kg, ip administered every other day for 30 days; type: organism-based; conditions: in vivo, 720 h
[26] = Toxicity in C57BL/6 mouse xenografted with mouse LLC cells assessed as effect on body weight at 5 mg/kg, ip administered every other day for 30 days; type: organism-based; conditions: in vivo, 720 h

CC(C)NC(=O)c1ccc2c3c([nH]c2c1)CCC(NC(=O)Nc1ccc(Cl)c(C(F)(F)F)c1)C3 (configuration not stated)
Activity (RAW264.7 [1]): 5566.34 pg/mL

O=C(Nc1ccc(Cl)c(C(F)(F)F)c1)NC1CCc2[nH]c3cccc(-c4cnn(CCO)c4)c3c2C1 (configuration not stated)
Activity (RAW264.7 [1]): 6714.86 pg/mL | EC50 (RAW264.7 [2]): 13.4 µM | EC50 [3]: 20.9 µM

O=C(Nc1ccc(Cl)c(C(F)(F)F)c1)NC1CCc2[nH]c3cc(C(=O)NC4CC4)ccc3c2C1 (configuration not stated)
Activity (RAW264.7 [1]): 6034.58 pg/mL

O=C(Nc1ccc(Cl)c(C(F)(F)F)c1)NC1CCc2[nH]c3cccc(C(=O)NCCOCCO)c3c2C1 (configuration not stated)
Activity (RAW264.7 [1]): 500.62 pg/mL

CN1CCN(C(=O)c2cccc3[nH]c4c(c23)CC(NC(=O)Nc2ccc(Cl)c(C(F)(F)F)c2)CC4)CC1 (configuration not stated)
Activity (RAW264.7 [1]): 3714.66 pg/mL

CN1CCN(C(=O)c2ccc3[nH]c4c(c3c2)CC(NC(=O)Nc2ccc(Cl)c(C(F)(F)F)c2)CC4)CC1 (configuration not stated)
Activity (RAW264.7 [1]): 4935.9 pg/mL

CN1CCN(C(=O)c2ccc3c4c([nH]c3c2)CCC(NC(=O)Nc2ccc(Cl)c(C(F)(F)F)c2)C4)CC1 (configuration not stated)
Activity (RAW264.7 [1]): 6552.76 pg/mL

CN1CCN(C(=O)c2cccc3c4c([nH]c23)CCC(NC(=O)Nc2ccc(Cl)c(C(F)(F)F)c2)C4)CC1 (configuration not stated)
Activity (RAW264.7 [1]): 2506.98 pg/mL

O=C(Nc1ccc(Cl)c(C(F)(F)F)c1)NC1CCc2[nH]c3cc(C(=O)N4CCOCC4)ccc3c2C1 (configuration not stated)
Activity (RAW264.7 [1]): 6085.83 pg/mL

O=C(Nc1ccc(Cl)c(C(F)(F)F)c1)NC1CCc2[nH]c3ccc(C(=O)NCCOCCO)cc3c2C1 (configuration not stated)
Activity (RAW264.7 [1]): 561.78 pg/mL

O=C(Nc1ccc(Cl)c(C(F)(F)F)c1)NC1CCc2[nH]c3ccc(C(=O)N4CCOCC4)cc3c2C1 (configuration not stated)
Activity (RAW264.7 [1]): 5510.03 pg/mL

O=C(Nc1ccc(Cl)c(C(F)(F)F)c1)NC1CCc2[nH]c3cc(C(=O)NCCO)ccc3c2C1 (configuration not stated)
Activity (RAW264.7 [1]): 4377.67 pg/mL

O=C(Nc1ccc(Cl)c(C(F)(F)F)c1)NC1CCc2[nH]c3cc(C(=O)NCCCO)ccc3c2C1 (configuration not stated)
Activity (RAW264.7 [1]): 5030.39 pg/mL

O=C(Nc1ccc(Cl)c(C(F)(F)F)c1)NC1CCc2[nH]c3cccc(C(=O)N4CCOCC4)c3c2C1 (configuration not stated)
Activity (RAW264.7 [1]): 4025.54 pg/mL

O=C(Nc1ccc(Cl)c(C(F)(F)F)c1)NC1CCc2[nH]c3ccc(C(=O)NC4CC4)cc3c2C1 (configuration not stated)
Activity (RAW264.7 [1]): 4458.11 pg/mL

O=C(Nc1ccc(Cl)c(C(F)(F)F)c1)NC1CCc2[nH]c3c(C(=O)NC4CC4)cccc3c2C1 (configuration not stated)
Activity (RAW264.7 [1]): 7730.01 pg/mL | EC50 (RAW264.7 [2]): 18.4 µM | EC50 [3]: 63.5 µM

O=C(Nc1ccc(Cl)c(C(F)(F)F)c1)NC1CCc2[nH]c3c(C(=O)N4CCOCC4)cccc3c2C1 (configuration not stated)
Activity (RAW264.7 [1]): 4127.15 pg/mL

Cn1cc(-c2cccc3[nH]c4c(c23)CC(NC(=O)Nc2ccc(Cl)c(C(F)(F)F)c2)CC4)cn1 (configuration not stated)
Activity (RAW264.7 [1]): 5994.12 pg/mL | EC50 (RAW264.7 [2]): 17.2 µM | EC50 [3]: 18.9 µM | Activity (RAW264.7 [4]): Dose-dependent effect | Activity (RAW264.7 [5]): Dose-dependent effect | Activity (RAW264.7 [6]): Dose-dependent effect | Activity (RAW264.7 [7]): Dose-dependent effect | inhibition (RAW264.7 [8]): Dose-dependent effect | inhibition (RAW264.7 [9]): Dose-dependent effect | inhibition (RAW264.7 [10]): Dose-dependent effect | inhibition (RAW264.7 [11]): Dose-dependent effect | Activity (RAW264.7 [12]): 24.4% | inhibition (INH) (RAW264.7 [13]): 8.76% | Activity (RAW264.7 [14]): Non-Toxic | Activity [15]: Active | Activity [16]: Active | Activity [17]: Active | Activity [18]: Active | Activity [19]: Non-Toxic | Activity [20]: Non-Toxic | Activity (Mus musculus [21]): Active | Activity (Mus musculus [22]): Active | Activity (Mus musculus [23]): Active | Activity (Mus musculus [24]): Active | Activity [25]: Non-Toxic | Activity [26]: Non-Toxic

O=C(Nc1ccc(Cl)c(C(F)(F)F)c1)NC1CCc2[nH]c3cc(C(=O)NCCOCCO)ccc3c2C1 (configuration not stated)
Activity (RAW264.7 [1]): 6968.79 pg/mL

O=C(Nc1ccc(Cl)c(C(F)(F)F)c1)NC1CCc2[nH]c3c(C(=O)NCCOCCO)cccc3c2C1 (configuration not stated)
Activity (RAW264.7 [1]): 3364.65 pg/mL

Cn1cc(-c2ccc3c4c([nH]c3c2)CCC(NC(=O)Nc2ccc(Cl)c(C(F)(F)F)c2)C4)cn1 (configuration not stated)
Activity (RAW264.7 [1]): 3770.66 pg/mL

O=C(Nc1ccc(Cl)c(C(F)(F)F)c1)NC1CCc2[nH]c3cc(-c4cnn(CCO)c4)ccc3c2C1 (configuration not stated)
Activity (RAW264.7 [1]): 6043.84 pg/mL

O=C(Nc1ccc(Cl)c(C(F)(F)F)c1)NC1CCc2[nH]c3cccc(C(=O)NC4CC4)c3c2C1 (configuration not stated)
Activity (RAW264.7 [1]): 6427.32 pg/mL
